Assay [1] relates to MKN45 gastric cancer cell line. Nature of the assay: Assay of inhibitory effect on cell proliferation (CellTiter-Glo). In kind it is cell-based. Particulars: Homo sapiens, MKN-45, 72 h, read-out: MKN45 cell IC50. From the text:
Assay Example 2: Assay of Inhibitory Effect on Cell Proliferation
1. cell culture: DMEM medium, fetal bovine serum, DPBS
2. cell line: MKN45 gastric cancer cell line
3. detection reagent: live cell detection kit CellTiter-Glo
4. other main materials and reagents: compound dilution plate, middle plate, detection plate, DMSO
The content of ATP directly reflects the number and state of cells. By quantitation of ATP, the number of living cells can be detected. The living cell detection kit contains luciferase and its substrate. Through the participation of ATP, the luciferase can catalyze the substrate to emit a stable light signal. The number of ATP in the cells was determined by detecting the intensity of the signal. The light signal was directly proportional to the number of ATP in the cells, while ATP was positively correlated with the number of living cells, so that the proliferation of cells can be detected. The test plate was analyzed using Envision from PE Inc.
1. Preparation of the Cell Plate
The MKN45 cells were seeded into a 384-well plate with 200 cells per well. The cell plate was placed in a carbon dioxide incubator and incubated overnight.
2. Preparation of Compounds
Compounds were subject to a 5-fold serial dilution with Echo to obtain nine concentrations, in duplicate.
3. Treatment of Cells with Compounds
The compounds were transferred to the cell plate at an initial concentration of […]. The cell plate was placed in a carbon dioxide incubator and incubated for three days.
A Promega CellTiter-Glo reagent was added to the cell plate and incubated at room temperature for 10 minutes to stabilize the luminescence signal. A PerkinElmer Envision multi-label analyzer was used for reading.
On the technique in general: ATP-based viability assays read luminescence as a measure of living cells.

The subject of assay [2] is Hs746t gastric cancer cells. Nature of the assay: Drug efficacy in a model with subcutaneous xenograft tumor of Hs746t gastric cancer cells. In kind it is in vivo, BALB/c nude mice. Particulars: for Tumor volume (Day 0): Day 0, Mean ± SEM; for Tumor volume (Day 20): Day 20, Mean ± SEM. The method, then:
Assay Example 4: Assay of Drug Efficacy in a Model with Subcutaneous Xenograft Tumor of Hs746t Gastric Cancer Cells
Human gastric cancer Hs746t cells were cultured in vitro in monolayer. The culture conditions were DMEM medium plus 10% fetal bovine serum, 100 U/mL penicillin and 100 U/mL streptomycin, 37° C., 5% CO2 incubator. The passaging was carried out by conventional digestion with trypsin-EDTA twice a week. When the cell saturation was 80%-90%, and the number met the requirements, the cells were collected, counted, and inoculated.
(§1) BALB/c nude mice, male, 6-8 weeks old, weighted 18-22 grams.
0.2 mL (2×10^6, cells:Matrigel=1:1) of HS 746T cells were subcutaneously inoculated on the right back of each mouse. When the average tumor volume reached about 100-150 mm^3, administration to each group was started.
Assay index: The assay index is to investigate whether tumor growth is inhibited, delayed or cured. Tumor diameter was measured twice a week with a vernier caliper. The calculation formula of tumor volume is: V=0.5a×b^2, wherein a and b represent the long and short diameters of the tumor, respectively. The anti-tumor efficacy (TGI) of the compound was evaluated by T-C (day) and T/C (%).
Assay results: See Table 4.

Assay [3] has as its system MKN45 gastric cancer cells. The assay can be described thus: Drug efficacy in a model with subcutaneous xenograft tumor of MKN45 gastric cancer cells. In kind it is in vivo, BALB/c nude mice. As to conditions: day 14 after administration; for Tumor volume (Day 14): Mean ± SEM. The method, then: Assay Example 3: Assay of Drug Efficacy in a Model with Subcutaneous Xenograft Tumor of MKN45 Gastric Cancer Cells
MKN45 cells were cultured in vitro in monolayer. The culture conditions were RPMI1640 medium plus 10% heat-inactivated fetal bovine serum, 1% penicillin-streptomycin, 37° C., and 5% CO2. The passaging was carried out by conventional digestion with trypsin-EDTA twice a week. When the cells were in the exponential growth phase, the cells were collected, counted, and inoculated.
as §1
0.2 ml of a suspension containing 5×10^6 MKN45 cells was inoculated subcutaneously on the right back of each mouse. When the average volume of the tumor reached about 160 mm^3, administration to each group was started.
Assay index: the assay index is to investigate whether the tumor growth is inhibited, delayed or cured. Tumor diameter was measured twice a week with a vernier caliper. The calculation formula of tumor volume is: V=0.5a×b^2, wherein a and b represent the long and short diameters of the tumor, respectively. The anti-tumor efficacy (TGI) of the compound was evaluated by T-C (day) and T/C (%).
Assay results: See Table 3.

The next assay concerns MHCC97H cell. As to conditions: read-out: MHCC97H cell IC50; cited from earlier work.
Where [4] appears, read: three days incubation, CellTiter-Glo.

Where two headings read alike, the source gives them in different places.

For orientation: IC50 means the concentration needed to halve the response being measured. As for `NC(=O)Nc1cc(Oc2ccc(NC(=O)c3cn(CC4CC4)c(=O)n(-c4ccc(F)cc4)c3=O)cc2F)ccn1` [Example 16], in assay [1], the IC50 came out at 50.7 nM.
Consider `CN(C)C(=O)Nc1cc(Oc2ccc(NC(=O)c3cn(CC4CC4)c(=O)n(-c4ccc(F)cc4)c3=O)cc2F)ccn1` [Example 17], for which, in assay [2] (1.5 mpk), the TGI is listed as 74.16%, the “Tumor volume (Day 0)” value was determined as 127 ± 12 mm^3, the “T/C (Day 20)” value was 30.68% and the “Tumor volume (Day 20)” value is listed as 780 ± 195 mm^3. Moreover, in assay [2] (4.5 mpk), the TGI worked out at 104.82%, the “Tumor volume (Day 0)” value came to 127 ± 13 mm^3, the “T/C (Day 20)” value was 0.15% and the “Tumor volume (Day 20)” value turned out to be 4 ± 2 mm^3. For the same compound, in assay [2] (9 mpk), the TGI turned out to be 105.02%, the “Tumor volume (Day 0)” value was 127 ± 9 mm^3, the “T/C (Day 20)” value is reported as 0.00% and the “Tumor volume (Day 20)” value is 0 ± 0 mm^3.
With `O=C(Nc1ccc(Oc2ccnc(NC(=O)N3CCCC3)c2)c(F)c1)c1cn(CC2CC2)c(=O)n(-c2ccc(F)cc2)c1=O` [Example 20], the IC50 in assay [1] worked out at 29.1 nM.
The T/C is the ratio of treated to control. Consider `Nc1nccc(Oc2ccc(NC(=O)c3cn(CC4CC4)c(=O)n(-c4ccc(F)cc4)c3=O)cc2F)c1Cl` [Example 5], for which, in assay [1], the IC50 was 11 nM. In assay [2] (4.5 mpk), the TGI stood at 104.43%, the “Tumor volume (Day 0)” value was determined as 126 ± 10 mm^3, the “T/C (Day 20)” value is on record as 0.78% and the “Tumor volume (Day 20)” value worked out at 20 ± 8 mm^3. In assay [2] (9 mpk), the TGI stood at 105.01%, the “Tumor volume (Day 0)” value was determined as 127 ± 10 mm^3, the “T/C (Day 20)” value stood at 0.00% and the “Tumor volume (Day 20)” value was 0 ± 0 mm^3. Also, in assay [3], the T/C is listed as 15.3%, the TGI is reported as 96.9% and the “Tumor volume (Day 14)” value worked out at 196 ± 17 mm^3.
With `O=C(Nc1ccc(Oc2ccnc(NC(=O)N3CCOCC3)c2)c(F)c1)c1cn(CC2CC2)c(=O)n(-c2ccc(F)cc2)c1=O` [Example 13], in assay [1], the IC50 is 38 nM.
Turning to `Nc1nccc(Oc2ccc(NC(=O)c3cn(CC4CC4(F)F)c(=O)n(-c4ccc(F)cc4)c3=O)cc2F)c1Cl` (stereo not shown) [Example 3], the IC50 in assay [1] (setting [4]) was 27 nM.
Take `O=C(Nc1ccc(Oc2ccnc(NC(=O)N3CCC3)c2)c(F)c1)c1cn(CC2CC2)c(=O)n(-c2ccc(F)cc2)c1=O` [Example 18]: the IC50 in assay [1] was 12.1 nM.
On to `Nc1nccc(Oc2ccc(NC(=O)c3c4n(c(=O)n(-c5ccc(F)cc5)c3=O)CCC4)cc2F)c1Cl` [Example 12], for which the concentration for half-maximal inhibition (IC50) in assay [1] (setting [4]) amounted to 315 nM.
Regarding `C=CCn1cc(C(=O)Nc2ccc(Oc3ccnc(N)c3Cl)c(F)c2)c(=O)n(-c2ccc(F)cc2)c1=O` [Example 2], the IC50 in assay [1] worked out at 78 nM.
As to `CC(C)Cn1cc(C(=O)Nc2ccc(Oc3ccnc(N)c3Cl)c(F)c2)c(=O)n(-c2ccc(F)cc2)c1=O` [Example 8], the concentration for half-maximal inhibition (IC50) in assay [1] (setting [4]) amounted to 374 nM.
Take `Nc1nccc(Oc2ccc(NC(=O)c3cn(CC(F)F)c(=O)n(-c4ccc(F)cc4)c3=O)cc2F)c1Cl` [Example 9]: in assay [1], the IC50 was found to be 365 nM.
Same read-out and setting: the same measure for `Cc1[nH]c(=O)n(-c2ccc(F)cc2)c(=O)c1C(=O)Nc1ccc(Oc2ccnc(N)c2Cl)c(F)c1` [Example 11]: 240 nM.
Turning to `Cc1ccc(C(=O)Nc2ccc(Oc3cc4cnn(C)c4cc3-c3cn[nH]c3)c(F)c2)c(=O)n1-c1ccc(F)cc1` [LY2801653, reference compound], in assay [2] (4.5 mpk), the TGI is 101.62%, the “Tumor volume (Day 0)” value was 127 ± 12 mm^3, the “T/C (Day 20)” value worked out at 3.45% and the “Tumor volume (Day 20)” value amounted to 88 ± 13 mm^3.
Regarding `CCOc1ccn(-c2ccc(F)cc2)c(=O)c1C(=O)Nc1ccc(Oc2ccnc(N)c2Cl)c(F)c1` [BMS777607, reference compound], the half-inhibitory concentration (IC50) in assay [1] (setting [4]) was 436 nM. Also, in assay [2] (4.5 mpk), the TGI turned out to be 27.61%, the “Tumor volume (Day 0)” value is 127 ± 11 mm^3, the “T/C (Day 20)” value stood at 73.58% and the “Tumor volume (Day 20)” value was 1872 ± 355 mm^3.
Consider `CN1CCC(COc2cnc(-c3cccc(Cn4nc(-c5cccc(C#N)c5)ccc4=O)c3)nc2)CC1` [Tepotinib], for which the concentration for half-maximal inhibition (IC50) with MHCC97H cell was 6.2 nM.
For `CC(C)n1cc(C(=O)Nc2ccc(Oc3ccnc(N)c3Cl)c(F)c2)c(=O)n(-c2ccc(F)cc2)c1=O` [Example 1], the IC50 in assay [1] was determined as 54 nM. Further, in assay [3], the T/C is reported as 16.5%, the TGI was 95.1% and the “Tumor volume (Day 14)” value was 218 ± 31 mm^3.
`N#Cc1c(Oc2ccc(NC(=O)c3cn(CC4CC4)c(=O)n(-c4ccc(F)cc4)c3=O)cc2F)ccnc1N` [Example 14]: in assay [1], the IC50 came to 30 nM.

These data come from patent US11623923B2, “Uracil compound as c-MET/AXL inhibitor” (MEDSHINE DISCOVERY, INC., priority 2017, dated 2023).
